The term Ki denotes a dissociation constant, usually derived from enzyme kinetics or from competition with a known ligand. A lower Ki goes with higher affinity.

Assay [1] addresses Plasma kallikrein (Homo sapiens, UniProt P03952). The assay can be described thus: Inhibitory activity of compound against human plasma Kallikrein (PK). Format: cell-free.
In assay [2] the target is Kallikrein-1 (Homo sapiens, UniProt P06870). The assay can be described thus: Inhibitory activity of compound against Tissue Kallikrein (TK).

Bounds are passed on as bounds.

Kallikrein-1, sequence (P06870 whole entry): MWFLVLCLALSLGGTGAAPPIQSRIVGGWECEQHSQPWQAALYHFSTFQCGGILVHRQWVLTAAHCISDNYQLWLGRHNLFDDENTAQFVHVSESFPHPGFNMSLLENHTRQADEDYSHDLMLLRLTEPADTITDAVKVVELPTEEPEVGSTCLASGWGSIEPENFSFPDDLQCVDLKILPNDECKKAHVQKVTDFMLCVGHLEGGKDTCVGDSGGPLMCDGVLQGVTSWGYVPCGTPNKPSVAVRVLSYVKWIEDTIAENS
Plasma kallikrein, sequence (P03952 20-390 limits assumed): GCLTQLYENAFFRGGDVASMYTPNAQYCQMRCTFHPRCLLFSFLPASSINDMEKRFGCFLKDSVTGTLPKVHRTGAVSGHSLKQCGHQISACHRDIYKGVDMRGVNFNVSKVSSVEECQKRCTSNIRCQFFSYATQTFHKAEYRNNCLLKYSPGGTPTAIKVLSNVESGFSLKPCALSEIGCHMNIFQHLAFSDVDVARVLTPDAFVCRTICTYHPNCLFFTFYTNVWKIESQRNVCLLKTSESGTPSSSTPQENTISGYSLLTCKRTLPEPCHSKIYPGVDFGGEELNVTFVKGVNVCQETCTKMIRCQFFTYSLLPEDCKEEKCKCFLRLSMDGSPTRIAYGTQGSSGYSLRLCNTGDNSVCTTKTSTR
Plasma kallikrein, sequence (P03952 391-638 limits assumed): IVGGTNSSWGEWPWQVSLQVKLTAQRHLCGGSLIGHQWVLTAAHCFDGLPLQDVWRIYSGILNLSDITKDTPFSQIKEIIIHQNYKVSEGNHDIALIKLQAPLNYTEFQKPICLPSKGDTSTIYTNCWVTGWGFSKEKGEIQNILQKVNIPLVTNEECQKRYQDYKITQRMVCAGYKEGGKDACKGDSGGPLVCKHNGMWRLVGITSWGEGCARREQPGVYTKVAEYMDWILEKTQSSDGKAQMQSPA

As for `CC(C)(C)[C@@H](NC(=O)N1CCOCC1)C(=O)NCC(=O)NC(Cc1ccc(NC(=N)N)cc1)C(=O)C(F)(F)F` (some centres undefined), the Ki was 15.5 µM in assay [1] and over 150 µM in assay [2].

As for `CC(C)(C)[C@@H](NC(=O)N1CCOCC1)C(=O)N[C@@H](Cc1ccccc1)C(=O)NC(Cc1ccc(NC(=N)N)cc1)C(=O)C(F)(F)F` (some centres undefined), the Ki in assay [1] was 0.028 µM; in assay [2], over 2500 µM.

On to `CC(C)(C)[C@@H](NC(=O)OC12CC3CC(CC(C3)C1)C2)C(=O)N[C@H](C(=O)NC(Cc1ccc(NC(=N)N)cc1)C(=O)C(F)(F)F)c1ccc2ccccc2c1` (some centres undefined), for which the figures for the inhibition constant (Ki) in assay [1] and in assay [2] were 0.5 µM and over 50 µM, respectively.

For the molecule `N=C(N)Nc1ccc(CC(NC(=O)[C@H](Cc2ccccc2)NC(=O)[C@@H](CCc2ccccc2)NC(=O)OC23CC4CC(CC(C4)C2)C3)C(=O)C(F)(F)F)cc1` (some centres undefined), the Ki in assay [1] was 0.004 µM; in assay [2], 7 µM.

For `CC(C)(C)OC(=O)N[C@H](Cc1ccccc1)C(=O)N[C@H](C(=O)NC(Cc1ccc(NC(=N)N)cc1)C(=O)C(F)(F)F)c1ccc2ccccc2c1` (some centres undefined), the inhibition constant Ki in assay [1] was determined as 0.089 µM; in assay [2], 223 µM.

For `CC(C)[C@@H](NC(=O)OC12CC3CC(CC(C3)C1)C2)C(=O)N[C@@H](Cc1ccccc1)C(=O)NC(Cc1ccc(NC(=N)N)cc1)C(=O)C(F)(F)F` (some centres undefined), the Ki in assay [1] worked out at 0.005 µM; in assay [2] it was 191 µM.

As for `CC(C)(C)[C@@H](NC(=O)OC12CC3CC(CC(C3)C1)C2)C(=O)N[C@@H](Cc1ccccc1)C(=O)NC(Cc1ccc(NC(=N)N)cc1)C(=O)C(F)(F)F` (some centres undefined), the Ki in assay [1] was 0.002 µM; in assay [2], 47.3 µM.

(Values after ChEMBL document CHEMBL1131912, “Synthesis of potent and selective inhibitors of human plasma kallikrein” (Bioorg Med Chem Lett, 1999).)
